Patent publication US11773094B2, “Farnesoid X receptor agonists and uses thereof” (Metacrine, Inc., priority 2018, dated 2023)

Molecular target: T1, hFXR (Homo sapiens, UniProt Q96RI1)
T1 construct: expressed in transfected cells; host or cells: CV-1 cells
T1 sequence (Q96RI1 1-486): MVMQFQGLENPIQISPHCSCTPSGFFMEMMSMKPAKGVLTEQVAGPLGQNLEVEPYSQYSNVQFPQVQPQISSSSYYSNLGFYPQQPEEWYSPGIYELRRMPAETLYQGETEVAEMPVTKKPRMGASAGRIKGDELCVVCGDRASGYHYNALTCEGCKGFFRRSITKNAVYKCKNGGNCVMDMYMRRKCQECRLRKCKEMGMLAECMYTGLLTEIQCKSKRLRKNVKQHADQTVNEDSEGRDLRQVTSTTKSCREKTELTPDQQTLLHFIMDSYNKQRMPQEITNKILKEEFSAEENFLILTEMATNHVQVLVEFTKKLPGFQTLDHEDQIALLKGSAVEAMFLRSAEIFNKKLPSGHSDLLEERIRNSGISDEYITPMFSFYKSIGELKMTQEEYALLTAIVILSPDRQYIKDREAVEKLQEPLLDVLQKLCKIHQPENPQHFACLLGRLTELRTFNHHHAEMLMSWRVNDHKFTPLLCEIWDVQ
T1 sequence (P19793 1-462 partner): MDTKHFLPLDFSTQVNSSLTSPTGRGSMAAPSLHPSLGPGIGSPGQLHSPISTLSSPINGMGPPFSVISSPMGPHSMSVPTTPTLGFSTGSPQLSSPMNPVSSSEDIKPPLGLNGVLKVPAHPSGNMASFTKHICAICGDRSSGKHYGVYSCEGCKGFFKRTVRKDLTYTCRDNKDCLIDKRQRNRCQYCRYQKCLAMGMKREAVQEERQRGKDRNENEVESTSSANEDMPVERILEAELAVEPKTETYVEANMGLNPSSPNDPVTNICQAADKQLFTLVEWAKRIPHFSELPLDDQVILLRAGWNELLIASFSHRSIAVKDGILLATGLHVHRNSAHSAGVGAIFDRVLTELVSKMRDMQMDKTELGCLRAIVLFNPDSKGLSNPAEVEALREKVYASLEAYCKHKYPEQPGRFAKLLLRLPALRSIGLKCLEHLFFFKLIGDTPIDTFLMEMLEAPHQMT
Assay: In Vitro FXR Assay (TK): TK-ECRE-luc reporter in transfected CV-1 cells
Assay type: cell-based
Conditions: CV-1 cells transfected with hFXR, hRXR, pCMX-YFP, 18 hrs incubation, luminescence
In short: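 CV-1, DMEM/10% charcoal-stripped FBS, 37 °C 5% CO2. Transfection O/N: hFXR + hRXR + TK-ECRE-luc + pCMX-YFP. Cpds (DMSO serial dil.) 18 h; lyse, read luminescence.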

Row | SMILES | EC50 [nM]
1 | CCC(C)(CC)n1cc(-c2ccnc(N(CC34CCC(c5ccc(OC)c(C)c5)(CC3)CC4)C(=O)[C@H]3CC[C@H](OC(=O)N4CCC(O)CC4)CC3)c2)cn1 [Compound 4.06, 4-(((4-(4-Methoxy-3-methylphenyl)bicyclo[2.2.2]octan-1-yl)methyl)(4-(1-(3-methylpentan-3-yl)-1H-pyrazol-4-yl)pyridin-2-yl)carbamoyl)cyclohexyl trans-4-hydroxypiperidine-1-carboxylate] | ≤ 10
2 | COc1ccc(C23CCC(CN(c4cc(-c5cnn(C(C)(C)C)c5)ccn4)C(=O)[C@H]4CC[C@H](OC(=O)NCCCO)CC4)(CC2)CC3)cc1C [Compound 2.31, 4-((4-(1-(tert-Butyl)-1H-pyrazol-4-yl)pyridin-2-yl)((4-(4-methoxy-3-methylphenyl)bicyclo[2.2.2]octan-1-yl)methyl)carbamoyl) (trans-cyclohexyl) (3-hydroxypropyl)carbamate] | ≤ 10
3 | COc1ccc(C23CCC(CN(c4cc(-c5coc(C(C)(C)C)n5)ccn4)C(=O)[C@H]4CC[C@H](OC(=O)N5CC[C@H]5CO)CC4)(CC2)CC3)cc1C [Compound 2.11, (S)-4-((4-(2-(tert-Butyl)oxazol-4-yl)pyridin-2-yl)((4-(4-methoxy-3-methylphenyl)bicyclo[2.2.2]octan-1-yl)methyl)carbamoyl)cyclohexyl 2-(hydroxymethyl)azetidine- trans-1-carboxylate] | ≤ 10
4 | COc1ccc(C23CCC(CN(c4cc(-c5cnn(C(C)(C)C)c5)ccn4)C(=O)[C@H]4CC[C@H](OC(=O)N5CC[C@H](O)C5)CC4)(CC2)CC3)cc1C [Compound 2.34, (S)-4-((4-(1-(tert-Butyl)-1H-pyrazol-4-yl)pyridin-2-yl)((4-(4-methoxy-3-methylphenyl)bicyclo[2.2.2]octan-1-yl)methyl)carbamoyl) cyclohexyl trans-3-hydroxypyrrolidine-1-carboxylate] | ≤ 10
5 | COc1ccc(C23CCC(CN(c4cc(-c5cnc(C(C)(C)C)s5)ccn4)C(=O)[C@H]4CC[C@H](OC(=O)N5CCC(O)CC5)CC4)(CC2)CC3)cc1C [Compound 2.05, 4-((4-(2-(tert-Butyl)thiazol-5-yl)pyridin-2-yl)((4-(4-methoxy-3-methylphenyl)bicyclo[2.2.2]octan-1-yl)methyl)carbamoyl)cyclohexyl 4-hydroxypiperidine- trans-1-carboxylate] | ≤ 10
6 | COc1ccc(C23CCC(CN(c4cc(-c5coc(C(C)(C)C)n5)ccn4)C(=O)[C@H]4CC[C@H](OC(=O)N5CCC(O)CC5)CC4)(CC2)CC3)cc1C [Compound 2.17, 4-((4-(2-(tert-Butyl)oxazol-4-yl)pyridin-2-yl)((4-(4-methoxy-3-methylphenyl)bicyclo[2.2.2]octan-1-yl)methyl)carbamoyl)cyclohexyl 4-hydroxypiperidine- trans-1-carboxylate] | ≤ 10
7 | COc1c(C)cc(C23CCC(CN(c4cc(-c5cnn(C(C)(C)C)c5)ncn4)C(=O)[C@H]4CC[C@H](OC(=O)N5CC(O)C5)CC4)(CC2)CC3)cc1C [Compound 2.37, 4-((6-(1-(tert-Butyl)-1H-pyrazol-4-yl)pyrimidin-4-yl)((4-(4-methoxy-3,5-dimethylphenyl)bicyclo[2.2.2]octan-1-yl)methyl)carbamoyl) (trans-cyclohexyl) 3-hydroxyazetidine-1-carboxylate] | 10 to 1000
8 | COc1ccc(C23CCC(CN(c4cc(-c5cnn(C(C)(C)C)c5)ccn4)C(=O)[C@H]4CC[C@H](OC(=O)N5CC(S(C)(=O)=O)C5)CC4)(CC2)CC3)cc1C [Compound 2.23, 4-((4-(1-(tert-Butyl)-1H-pyrazol-4-yl)pyridin-2-yl)((4-(4-methoxy-3-methylphenyl)bicyclo[2.2.2]octan-1-yl)methyl)carbamoyl) (trans-cyclohexyl) 3-(methylsulfonyl)azetidine-1-carboxylate] | ≤ 10
